# Measured values taken from ChEMBL document CHEMBL1146528, “Isolation and structures of avicins D and G: in vitro tumor-inhibitory saponins derived from Acacia victoriae” (J Nat Prod, 2003).
# System: Jurkat
# Assay: Cytotoxicity against human Jurkat cells after 72 hrs by MTT assay
# Type: functional, cell-based
row,SMILES,IC50
1,CC(=O)N[C@H]1[C@H](O[C@H]2CC[C@]3(C)[C@H]4CC=C5[C@@H]6CC(C)(C)[C@@H](O)C[C@]6(C(=O)O)[C@H](O)C[C@@]5(C)[C@]4(C)CC[C@H]3C2(C)C)O[C@H](CO[C@@H]2O[C@H](C)[C@H](O)[C@H](O)[C@H]2O[C@@H]2OC[C@@H](O)[C@H](O)[C@H]2O)[C@@H](O)[C@@H]1O,> 100 µg/mL
2,C=C[C@@](C)(CC/C=C(\CO)C(=O)O[C@H]1C[C@]2(C(=O)O[C@@H]3O[C@H](CO)[C@@H](O)[C@H](O)[C@H]3O[C@@H]3O[C@@H](C)[C@H](O[C@@H]4O[C@@H](CO)[C@H](O)[C@H]4O)[C@@H](O[C@@H]4O[C@H](CO)[C@@H](O)[C@H](O)[C@H]4O)[C@H]3O)[C@H](O)C[C@]3(C)C(=CC[C@@H]4[C@@]5(C)CC[C@H](O[C@@H]6O[C@H](CO[C@@H]7O[C@H](C)[C@H](O)[C@H](O)[C@H]7O[C@@H]7OC[C@@H](O)[C@H](O)[C@H]7O)[C@@H](O)[C@H](O)[C@H]6NC(C)=O)C(C)(C)[C@@H]5CC[C@]43C)[C@@H]2CC1(C)C)O[C@@H]1O[C@H](C)[C@@H](O)[C@H](O)[C@H]1O [JULIBROSIDE J29],5.8 µg/mL
3,CC1(C)C[C@H]2C3=CC[C@@H]4[C@@]5(C)CC[C@H](O)C(C)(C)[C@@H]5CC[C@@]4(C)[C@]3(C)C[C@@H](O)[C@@]23C[C@@H]1OC3=O,> 100 µg/mL
4,C=C[C@](C)(O)CC/C=C(\C)C(=O)O[C@H]1[C@H](O)[C@@H](O)[C@H](O[C@@](C)(C=C)CC/C=C(\CO)C(=O)O[C@H]2C[C@]3(C(=O)O[C@@H]4O[C@H](CO)[C@@H](O)[C@H](O)[C@H]4O[C@@H]4O[C@@H](C)[C@H](O[C@@H]5O[C@@H](CO)[C@H](O)[C@H]5O)[C@@H](O[C@@H]5O[C@H](CO)[C@@H](O)[C@H](O)[C@H]5O)[C@H]4O)[C@H](O)C[C@]4(C)C(=CC[C@@H]5[C@@]6(C)CC[C@H](O[C@@H]7O[C@H](CO[C@@H]8O[C@H](C)[C@H](O)[C@H](O)[C@H]8O[C@@H]8OC[C@@H](O)[C@H](O)[C@H]8O)[C@@H](O)[C@H](O)[C@H]7NC(C)=O)C(C)(C)[C@@H]6CC[C@]54C)[C@@H]3CC2(C)C)O[C@@H]1C [AVICIN G],0.22 µg/mL
5,C=C[C@](C)(O)CC/C=C(\CO)C(=O)O[C@H]1[C@H](O)[C@@H](O)[C@H](O[C@@](C)(C=C)CC/C=C(\CO)C(=O)O[C@H]2C[C@]3(C(=O)O[C@@H]4O[C@H](CO)[C@@H](O)[C@H](O)[C@H]4O[C@@H]4O[C@@H](C)[C@H](O[C@@H]5O[C@@H](CO)[C@H](O)[C@H]5O)[C@@H](O[C@@H]5O[C@H](CO)[C@@H](O)[C@H](O)[C@H]5O)[C@H]4O)[C@H](O)C[C@]4(C)C(=CC[C@@H]5[C@@]6(C)CC[C@H](O[C@@H]7O[C@H](CO[C@@H]8O[C@H](C)[C@H](O)[C@H](O)[C@H]8O[C@@H]8OC[C@@H](O)[C@H](O)[C@H]8O)[C@@H](O)[C@H](O)[C@H]7NC(C)=O)C(C)(C)[C@@H]6CC[C@]54C)[C@@H]3CC2(C)C)O[C@@H]1C [AVICIN D],0.58 µg/mL
